Laboratory results from patent US11420958B2, “Aryl and heteroaryl substituted indole compounds” (BRISTOL-MYERS SQUIBB COMPANY, priority 2017, dated 2022).

Assays:
Assay type in all cases: cell-based
[1] = target: human TLR8 (Homo sapiens (Human), UniProt Q9NR97); assay: TLR8 inhibition reporter assay (HEK-Blue, SEAP); conditions: HEK-Blue cells overexpressing human TLR8, R848 15.9 μM stimulation
Method in brief: (§1)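 Reporter cells, NF-κB/AP-1-driven SEAP; cmpd 0.05 nM–50 μM final, 30 min RT pre-treat; stim gardiquimod 7.5 μM (TLR7), R848 15.9 μM (TLR8), ODN2006 5 nM (TLR9); 22 h 37 °C; % inhibition of SEAP signal.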

[2] = target: human TLR7 (Homo sapiens (Human), UniProt Q9NYK1); assay: TLR7 inhibition reporter assay (HEK-Blue, SEAP); conditions: HEK-Blue cells overexpressing human TLR7, gardiquimod 7.5 μM stimulation
Chain of human TLR7 (Q9NYK1 27-1049): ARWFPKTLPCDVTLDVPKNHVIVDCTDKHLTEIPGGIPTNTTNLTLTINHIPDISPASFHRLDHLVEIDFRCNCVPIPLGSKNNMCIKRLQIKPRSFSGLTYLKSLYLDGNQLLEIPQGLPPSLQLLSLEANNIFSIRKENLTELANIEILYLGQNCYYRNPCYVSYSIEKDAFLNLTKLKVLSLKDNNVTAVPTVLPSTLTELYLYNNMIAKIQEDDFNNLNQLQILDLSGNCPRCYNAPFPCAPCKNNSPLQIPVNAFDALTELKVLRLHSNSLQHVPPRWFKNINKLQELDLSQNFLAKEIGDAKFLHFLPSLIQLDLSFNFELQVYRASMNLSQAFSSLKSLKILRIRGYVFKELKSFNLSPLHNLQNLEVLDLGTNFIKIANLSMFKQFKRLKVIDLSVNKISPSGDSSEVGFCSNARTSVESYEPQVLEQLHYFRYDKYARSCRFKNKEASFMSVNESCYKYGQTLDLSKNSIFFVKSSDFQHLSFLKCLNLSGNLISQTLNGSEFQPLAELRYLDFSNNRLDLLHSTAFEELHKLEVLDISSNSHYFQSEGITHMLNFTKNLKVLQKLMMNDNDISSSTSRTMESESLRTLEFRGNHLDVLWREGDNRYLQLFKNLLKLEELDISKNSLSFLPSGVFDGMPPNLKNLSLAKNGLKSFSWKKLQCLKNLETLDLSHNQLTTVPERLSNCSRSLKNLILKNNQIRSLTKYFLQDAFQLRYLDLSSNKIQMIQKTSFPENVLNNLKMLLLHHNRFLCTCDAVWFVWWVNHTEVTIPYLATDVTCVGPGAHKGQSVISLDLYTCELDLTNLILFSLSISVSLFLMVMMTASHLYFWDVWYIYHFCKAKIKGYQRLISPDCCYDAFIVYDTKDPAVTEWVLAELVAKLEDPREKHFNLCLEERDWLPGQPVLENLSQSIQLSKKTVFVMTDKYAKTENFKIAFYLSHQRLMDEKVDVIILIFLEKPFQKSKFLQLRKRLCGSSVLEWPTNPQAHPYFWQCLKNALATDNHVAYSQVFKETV
Method in brief: as §1

[3] = target: human TLR9 (Homo sapiens (Human), UniProt Q9NR96); assay: TLR9 inhibition reporter assay (HEK-Blue, SEAP); conditions: HEK-Blue cells overexpressing human TLR9, ODN2006 5 nM stimulation
Chain of human TLR9 (Q9NR96 26-1032): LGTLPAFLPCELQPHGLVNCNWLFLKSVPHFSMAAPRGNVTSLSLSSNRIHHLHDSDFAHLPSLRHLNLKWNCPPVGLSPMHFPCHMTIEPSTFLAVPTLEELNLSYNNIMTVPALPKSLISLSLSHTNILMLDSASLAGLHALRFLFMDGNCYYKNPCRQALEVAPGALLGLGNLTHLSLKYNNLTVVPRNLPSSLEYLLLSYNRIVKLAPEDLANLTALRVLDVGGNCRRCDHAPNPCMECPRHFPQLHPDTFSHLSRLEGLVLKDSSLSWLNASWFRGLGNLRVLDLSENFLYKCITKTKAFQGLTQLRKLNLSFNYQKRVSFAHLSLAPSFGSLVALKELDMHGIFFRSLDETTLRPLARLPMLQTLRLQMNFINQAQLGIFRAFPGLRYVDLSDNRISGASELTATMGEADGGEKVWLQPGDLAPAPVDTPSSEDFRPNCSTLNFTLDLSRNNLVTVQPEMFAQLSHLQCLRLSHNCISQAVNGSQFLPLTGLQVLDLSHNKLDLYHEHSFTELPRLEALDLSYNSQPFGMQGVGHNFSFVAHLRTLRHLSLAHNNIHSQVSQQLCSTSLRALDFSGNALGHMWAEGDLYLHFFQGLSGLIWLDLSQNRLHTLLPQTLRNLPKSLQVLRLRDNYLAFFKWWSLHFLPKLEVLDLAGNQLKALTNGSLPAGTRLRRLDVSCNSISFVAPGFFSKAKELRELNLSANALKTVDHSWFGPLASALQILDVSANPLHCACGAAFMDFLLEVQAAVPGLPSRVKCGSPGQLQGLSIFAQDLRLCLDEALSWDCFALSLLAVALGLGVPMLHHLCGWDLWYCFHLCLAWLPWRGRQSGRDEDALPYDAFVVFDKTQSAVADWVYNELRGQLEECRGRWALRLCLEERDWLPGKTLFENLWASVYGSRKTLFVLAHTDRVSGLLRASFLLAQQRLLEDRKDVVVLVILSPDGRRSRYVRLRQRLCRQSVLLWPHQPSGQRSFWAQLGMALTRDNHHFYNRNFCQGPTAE
Method in brief: as §1

Chain of human TLR8 (Q9NR97 27-1041): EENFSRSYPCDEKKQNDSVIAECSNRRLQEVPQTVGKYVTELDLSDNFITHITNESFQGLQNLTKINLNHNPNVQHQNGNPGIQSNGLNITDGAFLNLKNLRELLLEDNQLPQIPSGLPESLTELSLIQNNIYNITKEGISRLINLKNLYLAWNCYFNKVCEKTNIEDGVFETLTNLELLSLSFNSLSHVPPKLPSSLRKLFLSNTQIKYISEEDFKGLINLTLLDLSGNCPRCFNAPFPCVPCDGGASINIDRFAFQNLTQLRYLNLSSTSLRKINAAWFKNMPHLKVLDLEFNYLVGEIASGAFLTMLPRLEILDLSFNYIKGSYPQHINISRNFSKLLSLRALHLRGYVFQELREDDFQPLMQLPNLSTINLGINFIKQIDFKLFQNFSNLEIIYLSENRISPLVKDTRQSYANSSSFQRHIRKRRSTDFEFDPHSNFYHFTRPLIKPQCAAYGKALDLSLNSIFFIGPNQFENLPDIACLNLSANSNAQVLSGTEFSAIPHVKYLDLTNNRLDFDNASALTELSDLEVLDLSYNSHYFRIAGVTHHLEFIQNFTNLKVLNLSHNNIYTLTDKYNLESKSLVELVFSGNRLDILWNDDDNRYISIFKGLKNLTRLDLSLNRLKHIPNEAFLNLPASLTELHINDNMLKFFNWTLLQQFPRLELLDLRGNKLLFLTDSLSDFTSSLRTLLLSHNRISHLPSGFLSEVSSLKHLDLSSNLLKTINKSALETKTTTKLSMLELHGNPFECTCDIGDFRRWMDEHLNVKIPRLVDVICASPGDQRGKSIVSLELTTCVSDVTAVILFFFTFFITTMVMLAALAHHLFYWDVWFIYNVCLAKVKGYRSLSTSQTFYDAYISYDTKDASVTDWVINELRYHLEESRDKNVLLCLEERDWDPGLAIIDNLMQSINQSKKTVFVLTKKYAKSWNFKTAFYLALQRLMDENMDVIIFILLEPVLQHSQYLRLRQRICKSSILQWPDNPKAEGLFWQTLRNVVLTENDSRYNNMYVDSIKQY

| IC50 [1] | IC50 [2] | IC50 [3] | Compound |
| --- | --- | --- | --- |
| 1.4 nM | 35 nM | 484 nM | Cc1cc(-c2[nH]c3ccc(-c4cc5c(s4)CN(C)CC5)cc3c2C(C)C)ccn1 [Example 251, 2-(3-isopropyl-2-(2-methylpyridin-4-yl)-1H-indol-5-yl)-6-methyl-4,5,6,7-tetrahydrothieno[2,3-c]pyridine] |
| 34 nM | 30 nM | 6360 nM | Cc1cc(-c2[nH]c3ccc(-c4nnc(N)o4)cc3c2C(C)C)cc(C)n1 [Example 318, 5-(2-(2,6-dimethylpyridin-4-yl)-3-isopropyl-1H-indol-5-yl)-1,3,4-oxadiazol-2-amine] |
| 481 nM | 1900 nM | > 50000 nM | Cc1cc(-c2[nH]c3ccc(-c4nnc(Cc5nnn[nH]5)o4)cc3c2C(C)C)ccn1 [Example 76, 2-((1H-tetrazol-5-yl)methyl)-5-(3-isopropyl-2-(2-methylpyridin-4-yl)-1H-indol-5-yl)-1,3,4-oxadiazole] |
| 213 nM | 1000 nM | 2880 nM | Cc1cc(-c2[nH]c3ccc(-c4nc(C)cs4)cc3c2C(C)C)ccn1 [Example 192, 2-(3-isopropyl-2-(2-methylpyridin-4-yl)-1H-indol-5-yl)-4-methylthiazole] |

The next lines start with the compound.

| Compound | IC50 [1] | IC50 [2] | IC50 [3] |
| --- | --- | --- | --- |
| COc1ccc(-c2[nH]c3ccc(-c4nnc(C(=O)N5CC6CNCC6C5)o4)cc3c2C(C)C)cc1OC (stereo not drawn) [Example 61, (5-(2-(3,4-dimethoxyphenyl)-3-isopropyl-1H-indol-5-yl)-1,3,4-oxadiazol-2-yl)(hexahydropyrrolo[3,4-c]pyrrol-2(1H)-yl)methanone] | 6.9 nM | 51 nM | 454 nM |
| Cc1cc(-c2[nH]c3ccc(-c4nnc(CC(C)N)o4)cc3c2C(C)C)ccn1 (stereo not drawn) [Example 259, 1-(5-(3-isopropyl-2-(2-methylpyridin-4-yl)-1H-indol-5-yl)-1,3,4-oxadiazol-2-yl)propan-2-amine] | 5.5 nM | 26 nM | 876 nM |
| CC(C)c1c(-c2ccnc3[nH]ncc23)[nH]c2ccc(-c3nnc(C(=O)NC4CCN(C(C)C)CC4)s3)cc12 [Example 203, 5-(3-isopropyl-2-(1H-pyrazolo[3,4-b]pyridin-4-yl)-1H-indol-5-yl)-N-(1-isopropylpiperidin-4-yl)-1,3,4-thiadiazole-2-carboxamide] | 7.8 nM | 56 nM | 926 nM |
| Cc1cc(-c2[nH]c3ccc(-c4nnc(C5CN6CCC5CC6)o4)cc3c2C(C)C)cc(C)n1 (stereo not drawn) [Example 250, 2-(2-(2,6-dimethylpyridin-4-yl)-3-isopropyl-1H-indol-5-yl)-5-(quinuclidin-3-yl)-1,3,4-oxadiazole] | 2.1 nM | 3.4 nM | 113 nM |
| CCc1c(-c2ccc(OC)c(OC)c2)[nH]c2ccc(-c3noc(C4CCN(Cc5ccccc5)C4)n3)cc12 (stereo not drawn) [Example 443, 5-(1-benzylpyrrolidin-3-yl)-3-(2-(3,4-dimethoxyphenyl)-3-ethyl-1H-indol-5-yl)-1,2,4-oxadiazole] | 740 nM | 3280 nM | 10300 nM |
| CC(C)c1c(-c2ccnc3[nH]ncc23)[nH]c2ccc(-c3ccc4nccnc4c3)cc12 [Example 468, 6-(3-isopropyl-2-(1H-pyrazolo[3,4-b]pyridin-4-yl)-1H-indol-5-yl)quinoxaline] | 35 nM | 450 nM | 47300 nM |
| Cc1cc(-c2[nH]c3ccc(-c4cc5c(s4)CN(Cc4c[nH]c(C)n4)CC5)cc3c2C(C)C)cc(C)n1 [Example 343, 2-(2-(2,6-dimethylpyridin-4-yl)-3-isopropyl-1H-indol-5-yl)-6-((2-methyl-1H-imidazol-4-yl)methyl)-4,5,6,7-tetrahydrothieno[2,3-c]pyridine] | 1.3 nM | 3.7 nM | 146 nM |
| Cc1cc(-c2[nH]c3ccc(-c4nnc(C5CCCNC5)[nH]4)cc3c2C(C)C)cc(C)n1 (stereo not drawn) [Example 323, 2-(2,6-dimethylpyridin-4-yl)-3-isopropyl-5-(5-(piperidin-3-yl)-4H-1,2,4-triazol-3-yl)-1H-indole] | 10 nM | 13 nM | 322 nM |
